Experimental data taken from patent US20040162263A1, “Pharmaceutical formulations targeting specific regions of the gastrointesinal tract” (priority 2002, published 2004).
Values after ≈ are worked out from the molar mass of the structure shown. Values joined by “and” are separate entries in the source; they are usually repeats but may differ in a detail not shown here. Equal entries are not always repeated.

How the values were obtained:
[1] = Physico-chemical properties of decitabine (solubility, stability); assay type: physicochemical
[2] = Pharmacokinetics of decitabine in IVAP rabbit model; assay type: in vivo, rabbits
Experimental: Decitabine was administered intravenously to IVAP rabbits (n=3) at three doses: 0.75, 1.5 and 2.5 mg/kg. It was also administered at 2.5mg/kg orally and through previously implanted intestinal and vascular access ports in the portal vein (PV), upper small intestine (USI), lower small intestine (LSI) and colon (IC). All routes received the same simple formulation of raw compound dissolved in cold saline. Care was taken to insure doses were delivered immediately (less than 15 minutes) after dissolving the powder and that the liquid formulation was kept on ice up to the time of administration. Blood samples were taken simultaneously from the median auricular artery and through a port in the portal vein at predetermined time points. Plasma was separated and kept frozen at −70° C. until shipped to Xenobiotic Laboratories for analysis.
Pharmacokinetic parameters were calculated using non-compartmental models with the Winnonlin v3.1 program.

[3] = IC 2.5 mg/kg, only two successful doses, individual values
[4] = IV 0.75 mg/kg, 2 min, 0.75 mg/kg
[5] = IV 0.75 mg/kg, 15 min, 0.75 mg/kg
[6] = IV 0.75 mg/kg, 60 min, 0.75 mg/kg
[7] = IV 0.75 mg/kg, 120 min, 0.75 mg/kg
[8] = IV 0.75 mg/kg, 240 min, 0.75 mg/kg
[9] = IV 1.5 mg/kg, 15 min, 1.5 mg/kg
[10] = IV 1.5 mg/kg, 60 min, 1.5 mg/kg
[11] = IV 1.5 mg/kg, 120 min, 1.5 mg/kg
[12] = IV 1.5 mg/kg, 180 min, 1.5 mg/kg

Nc1ncn([C@H]2C[C@H](O)[C@@H](CO)O2)c(=O)n1 [decitabine, 5-aza-2′-deoxycytidine]
moisture at equilibrium of monohydrate formed on exposure to humidity [1]: 7%
solubility in alcohol [1]: highly soluble
solid remains stable ([1]; 15-30° C., not exposed to humidity): 36 months
degradation rate in aqueous environment ([1]; pH 7 and 2-8° C.): about 0.7 %/hr
degradation rate in aqueous environment ([1]; pH 7 and 25° C.): 2.5 %/hr
solubility ([1]; water): ~25 mg/mL (≈ 110 mM)
hepatic first pass effect loss ((AUCIV−AUCPV/AUCIV)×100) ([2]; 2.5 mg/kg into portal vein): 32%
Individual systemic Bioavailability ([2]; IC 2.5 mg/kg): 68.29% and 0.22%
AUC0-inf in Portal Vein [2, 3]: 0.00298 µg·h/mL and 0.83 µg·h/mL
AUC0-inf in Systemic Samples [2, 3]: 0.00251 µg·h/mL and 0.773 µg·h/mL
CMAX ([2]; IC 2.5 mg/kg, two individual values): 2.0 ng/mL and 611 ng/mL
concentration PV, Mean ([2]; IV 0.75 mg/kg, 2 min): 0.624 µg/mL
concentration SYS, Mean ([2]; IV 0.75 mg/kg, 2 min): 0.628 µg/mL
concentration PV, individual [2, 4]: 0.581 µg/mL and 0.621 µg/mL and 0.669 µg/mL
concentration SYS, individual [2, 4]: 0.666 µg/mL and 0.615 µg/mL and 0.603 µg/mL
concentration SYS, Mean ([2]; IV 0.75 mg/kg, 5 min): 0.422 µg/mL
concentration SYS, individual ([2]; IV 0.75 mg/kg, 5 min, 0.75 mg/kg): 0.432 µg/mL and 0.415 µg/mL and 0.419 µg/mL
concentration PV, Mean ([2]; IV 0.75 mg/kg, 15 min): 0.229 µg/mL
concentration SYS, Mean ([2]; IV 0.75 mg/kg, 15 min): 0.247 µg/mL
concentration PV, individual [2, 5]: 233 ng/mL (2×) and 220 ng/mL
concentration SYS, individual [2, 5]: 0.257 µg/mL and 0.233 µg/mL and 0.25 µg/mL
concentration SYS, Mean ([2]; IV 0.75 mg/kg, 30 min): 0.177 µg/mL
concentration SYS, individual ([2]; IV 0.75 mg/kg, 30 min): 0.177 µg/mL
concentration PV, Mean ([2]; IV 0.75 mg/kg, 60 min): 0.083 µg/mL
concentration SYS, Mean ([2]; IV 0.75 mg/kg, 60 min): 0.098 µg/mL
concentration PV, individual [2, 6]: 0.0951 µg/mL and 0.0658 µg/mL and 0.0891 µg/mL
concentration SYS, individual [2, 6]: 102 ng/mL (2×) and 89.1 ng/mL
concentration PV, Mean ([2]; IV 0.75 mg/kg, 120 min): 0.028 µg/mL
concentration SYS, Mean ([2]; IV 0.75 mg/kg, 120 min): 0.039 µg/mL
concentration PV, individual [2, 7]: 0.0211 µg/mL and 0.034 µg/mL
concentration SYS, individual [2, 7]: 0.0406 µg/mL and 0.0352 µg/mL and 0.041 µg/mL
concentration PV, Mean ([2]; IV 0.75 mg/kg, 180 min): 0.014 µg/mL
concentration PV, individual ([2]; IV 0.75 mg/kg, 180 min): 0.0139 µg/mL
concentration SYS, Mean ([2]; IV 0.75 mg/kg, 180 min): 0.015 µg/mL
concentration SYS, individual ([2]; IV 0.75 mg/kg, 180 min, 0.75 mg/kg): 0.015 µg/mL and 0.0139 µg/mL and 0.0157 µg/mL
concentration PV, Mean ([2]; IV 0.75 mg/kg, 240 min): 0.005 µg/mL
concentration SYS, Mean ([2]; IV 0.75 mg/kg, 240 min): 0.006 µg/mL
concentration PV, individual [2, 8]: 0.00487 µg/mL and 0.00576 µg/mL
concentration SYS, individual [2, 8]: 0.0059 µg/mL and 0.00621 µg/mL and 0.00631 µg/mL
IV AUC0-inf, individual ([2]; IV 0.75 mg/kg, 0.75 mg/kg): 0.32737 µg·h/mL and 0.35353 µg·h/mL and 0.35468 µg·h/mL
concentration PV, Mean ([2]; IV 1.5 mg/kg, 2 min): 1.14 µg/mL
concentration SYS, Mean ([2]; IV 1.5 mg/kg, 2 min): 1.08 µg/mL
concentration PV, individual ([2]; IV 1.5 mg/kg, 2 min, 1.5 mg/kg): 1.3 µg/mL and 1.13 µg/mL and 0.985 µg/mL
concentration SYS, individual ([2]; IV 1.5 mg/kg, 2 min, 1.5 mg/kg): 1.24 µg/mL and 0.919 µg/mL
concentration PV, Mean ([2]; IV 1.5 mg/kg, 5 min): 0.652 µg/mL
concentration PV, individual ([2]; IV 1.5 mg/kg, 5 min): 0.652 µg/mL
concentration SYS, Mean ([2]; IV 1.5 mg/kg, 5 min): 0.735 µg/mL
concentration SYS, individual ([2]; IV 1.5 mg/kg, 5 min, 1.5 mg/kg): 0.819 µg/mL and 0.676 µg/mL and 0.711 µg/mL
concentration PV, Mean ([2]; IV 1.5 mg/kg, 15 min): 0.35 µg/mL
concentration SYS, Mean ([2]; IV 1.5 mg/kg, 15 min): 0.433 µg/mL
concentration PV, individual [2, 9]: 0.352 µg/mL and 0.301 µg/mL and 0.397 µg/mL
concentration SYS, individual [2, 9]: 0.443 µg/mL and 0.404 µg/mL and 0.453 µg/mL
concentration PV, Mean ([2]; IV 1.5 mg/kg, 30 min): 0.266 µg/mL
concentration PV, individual ([2]; IV 1.5 mg/kg, 30 min): 0.266 µg/mL
concentration SYS, Mean ([2]; IV 1.5 mg/kg, 30 min): 0.33 µg/mL
concentration SYS, individual ([2]; IV 1.5 mg/kg, 30 min, 1.5 mg/kg): 0.355 µg/mL and 0.304 µg/mL
concentration PV, Mean ([2]; IV 1.5 mg/kg, 60 min): 0.128 µg/mL
concentration SYS, Mean ([2]; IV 1.5 mg/kg, 60 min): 0.156 µg/mL
concentration PV, individual [2, 10]: 0.124 µg/mL and 0.119 µg/mL and 0.141 µg/mL
concentration SYS, individual [2, 10]: 0.149 µg/mL and 0.148 µg/mL and 0.171 µg/mL
concentration PV, Mean ([2]; IV 1.5 mg/kg, 120 min): 0.059 µg/mL
concentration SYS, Mean ([2]; IV 1.5 mg/kg, 120 min): 0.063 µg/mL
concentration PV, individual [2, 11]: 0.06 µg/mL and 0.0572 µg/mL and 0.0588 µg/mL
concentration SYS, individual [2, 11]: 0.0626 µg/mL and 0.0649 µg/mL and 0.0603 µg/mL
concentration PV, Mean ([2]; IV 1.5 mg/kg, 180 min): 0.022 µg/mL
concentration SYS, Mean ([2]; IV 1.5 mg/kg, 180 min): 0.024 µg/mL
concentration PV, individual [2, 12]: 0.0221 µg/mL and 0.0211 µg/mL
concentration SYS, individual [2, 12]: 0.0237 µg/mL and 0.0253 µg/mL and 0.023 µg/mL
